From PMC1559639 (BMC Clinical Pharmacology, 2006)
“And” between values parts separate entries of the source, which are not always exact repeats. Identical values can stand only once. Like-named read-outs stand apart in the source and are kept apart here.

How the values were obtained:
[1] = cited from earlier work; for t½: reported previously
[2] = clinical; format: in vivo; details: for % conjugated (mean degree of conjugation with sulfate and glucuronic acid): steady state plasma, mean of volunteers; for concentration at 4 h: both sexes, 200 mg
Description: Five volunteers (four female and one person) participated in this study. After a 24 hour diet free of flavonoids blood samples were drawn to obtain basal values. […] It was assumed that steady state plasma concentrations were reached after 5 days.
Four hours after the last intake of Pycnogenol on day five a second blood sample was obtained from each volunteer. Again, a 24 hour period of a diet free of flavonoids preceded this blood sampling. Blood samples were centrifuged and plasma was aliquoted, shock frozen and stored at -80°C until further analysis.
(§1) Plasma samples of 2.0 mL were prepared for analysis. For determination of total plasma concentration, to each sample 20 U β-glucuronidase (type H-3 from Helix pomatia; EC 3.2.1.31) and 20 U sulfatase (type H-1 from Helix pomatia; EC 3.1.6.1) were added in 50 mM sodium acetate buffer (pH 5.0) and incubated for 2 h at 37°C under gentle shaking. Samples for determination of free plasma concentrations were prepared without prior incubation with enzymes. Each 20 μL of p-hydroxybenzoic acid methylester (100 μg/mL; for HPLC UV detection) and hydrochinone (10 μg/mL; for HPLC electrochemical detection) were added as internal standards and samples were acidified with 100 μL 1 M-HCl. Samples were extracted twice with each 3 mL acetic acid methylester for 20 min, using a roller mixer, followed by centrifugation (20°C) 5 min. The organic phases of both extractions were separated, combined and evaporated to dryness under a gentle stream of nitrogen at 25°C. The resulting residue was reconstituted in 100 μL methanol and subjected to HPLC analysis.
(§2) The HPLC system was a Waters HPLC (Milford, MA, USA) consisted of a 1525 binary pump, a 717plus autosampler, a 2487 dual wavelength absorbance detector set at the detection wavelength of 280 nm and an electrochemical detector CLC 100 (Chromsystems, Munich, Germany) set at an oxidation voltage of 0.5 V. The second detector was connected to the control system by a satellite interface (Waters). Data collection and integration were accomplished using Breeze™ software version 3.30. Analysis was performed on a Zorbax SB C8 column (150 × 4.6 mm I.D., 5 μm particle size, Agilent Technologies, Palo Alto, CA, USA).
(§3) Typically, 20 μL of sample were injected and separated at a flow rate of 1 mL/min. Isocratic elution was performed using water (containing 0.6 mM 1-octanesulfonic acid sodium salt, 0.27 mM ethylenediaminetetraacetic acid disodium salt, 0.04 M triethylamine; pH 2.95 adjusted with phosphoric acid) and acetonitrile (ACN, HPLC gradient quality, Fisher Scientific, Schwerte, Germany). Method A (for UV detection of ferulic acid, M2 (δ-(3-Methoxy-4-hydroxy-phenyl)-γ-valerolactone), U1, U2, U3, U4, U7, U8, and U9) used water/ACN at 85:15 (v/v).

[3] = Plasma kinetics after single oral dose of 300 mg Pycnogenol in healthy volunteers; format: in vivo, human; details: for tmax: read-out: tmax (time of maximal plasma concentration); for half-life: read-out: term t½ (terminal half-life) (converted)
Description: Eleven volunteers (five female and six male) participated in this study. After a 24 hour diet free of flavonoids (no vegetables, fruits and fruit juices or marmalades, tea, coffee, cocoa, wine and beer) a venous blood catheter was inserted into an antecubital vein and blood samples were drawn to obtain basal values (t = 0 h at 8:00 a.m.). […] After each blood sampling mineral water was served. Blood samples were obtained at t = 0.5 h, 1 h, 2 h, 4 h, 6 h, 8 h, 10 h, 12 h and 14 h. Samples were centrifuged and plasma was aliquoted, shock frozen and stored at -80°C until further analysis.
as §1, §2, §3

[4] = tested on: MMP-9 release; details: in vitro / cell culture assays; read-out: IC50, inhibition of MMP-9 release; cited from earlier work
[5] = 200 mg Pycnogenol once daily for five days
[6] = human, plasma, oral, 200 mg Pycnogenol once daily for five days, 4 h after last dose, with sulfatase and glucuronidase, mean ± mean deviation, read-out: Total plasma concentration
[7] = human, plasma, oral, 200 mg Pycnogenol once daily for five days, 4 h after last dose, without enzyme incubation, read-out: Free plasma concentration
[8] = both sexes, human, plasma, oral, 300 mg, single dose 300 mg Pycnogenol, total plasma, read-out: cmax converted to molar concentration
[9] = both sexes, human, plasma, po, 300 mg, human volunteers, single oral dose 300 mg Pycnogenol, total (free and conjugated) plasma, t = 14 h, mean ± SD, read-out: AUC [0-t]
[10] = both sexes, human, plasma, po, 300 mg, human volunteers, single oral dose 300 mg Pycnogenol, total plasma, mean ± SD, read-out: AUC [t-8]
[11] = both sexes, human, plasma, po, 300 mg, human volunteers, single oral dose 300 mg Pycnogenol, total plasma, mean ± SD, read-out: cmax (maximal plasma concentration)
[12] = both sexes, human, plasma, po, 300 mg, human volunteers, single oral dose 300 mg Pycnogenol, total plasma, mean ± SD
[13] = both sexes, human, plasma, po, 300 mg
[14] = human volunteers, single oral dose 300 mg Pycnogenol, total plasma, mean ± SD
[15] = both sexes, human, plasma, oral, 300 mg

| Structure (SMILES) | % conjugated (mean degree of conjugation with sulfate and glucuronic acid) [2, 5] | concentration at 4 h [2, 6] [ng/mL] | Cmax [3, 8] [nM] | AUC(0-t) [3, 9] [ng·h/mL] | AUC(0-t) [3, 10] [ng·h/mL] | Cmax [3, 11] [ng/mL] | tmax [3, 12] [h] | half-life [3, 13] [h] | cmax (maximal plasma concentration) [3, 14] [ng/mL] | tmax (time of maximal plasma concentration) [3, 14] [h] | further results |
| --- | --- | --- | --- | --- | --- | --- | --- | --- | --- | --- | --- |
| O=C(O)/C=C/c1ccc(O)c(O)c1 [Caffeic acid, caffeic acid] | 69.4 ± 11.8% | 2.42 ± 1.39 | ~90 | 75.7 ± 33.5 | 82.8 ± 36.5 | ~17 | 3 to 4 | 4.42 ± 2.47 | 16.67 ± 13.29 | 3.7 ± 2.4 | Cmax ([1]; after ingestion of 107 mg caffeic acid from artichoke leaf extract): 6.5 ng/mL; tmax ([1]; after ingestion of red wine): 2 h; Cmax ([1]; after intake of 55 μg caffeic acid per kg body weight, read-out: cmax): 84 nM; tmax ([1]; after intake of red wine, coffee or artichoke leaf extract): 0.5 to 1 h; t½ [1]: 3.08 ± 1.53 h; % conjugated (mean degree of conjugation with sulfate and glucuronic acid) ([2]; 200 mg Pycnogenol once daily for five days, listed as caffeic acid): 69.4% and 69%; concentration at 4 h [2, 7]: 0.56 ± 0.02 ng/mL; individual degree of conjugation ([2]; single volunteers, 200 mg Pycnogenol daily for five days): 59.6% and 61.5% and 87.6% |
| O=C1CCC(Cc2ccc(O)c(O)c2)O1 (centres unmarked) [M1, δ-(3,4-Dihydroxy-phenyl)-γ-valerolactone] | ≈ 100% | 3.01 | ~20 | – | – | ~4 | ~10 | – | – | – | earliest appearance ([1]; after green tea ingestion): 3 h; time of peak plasma levels ([1]; after ingestion of green tea): 5 to 12 h; time of first detection in plasma ([3]; after single dose 300 mg Pycnogenol, first sampling at 0.5 h): 6 h; mean concentration at peak ([3]; around 10 h after single dose 300 mg Pycnogenol, total plasma): 3.59 ng/mL; presence in plasma over the experimental period of 14 h ([3]; single dose 300 mg Pycnogenol): still present 14 h after Pycnogenol ingestion; IC50 [4]: 0.5 µM |
| COc1cc(CC2CCC(=O)O2)ccc1O (centres unmarked) [M2, δ-(3-Methoxy-4-hydroxy-phenyl)-γ-valerolactone] | – | – | – | – | – | – | – | – | – | – | plasma concentration (not detected; lower limit of quantitation) ([3]; after single dose and repeated ingestion of Pycnogenol): < 50 ng/mL; IC50 [4]: 0.5 µM |
| Oc1cc(O)cc(O)c1 [phloroglucin] | – | – | – | – | – | – | – | – | – | – | detection of taxifolin degradation products in volunteers' plasma ([3]; human, in vivo): failed to detect |
| O=C(O)Cc1ccc(O)c(O)c1 [3,4-dihydroxyphenylacetic acid] | – | – | – | – | – | – | – | – | – | – | detection of taxifolin degradation products in volunteers' plasma ([3]; after Pycnogenol intake): failed to detect |
| Oc1cc(O)c2c(c1)O[C@H](c1ccc(O)c(O)c1)[C@@H](O)C2 [Catechin, (+)-catechin] | – | 48.6 ± 16.7 | ~370 | – | – | ~100 | ≤ 3 | – | 107.22 ± 55.49 | 3.2 ± 1.7 | time window of detection of unchanged compound in plasma ([1]; after a high single dose): between 30 min and 12 h; free polyphenol concentration as share of total concentration ([1]; after a single dose of pure catechin): 1.1 to 6.5%; time by which plasma concentrations were not significantly different from baseline ([1]; after ingestion of pure catechin): ≤ 4 h; tmax ([1]; human plasma, after ingestion of red wine or reconstituted red wine): 1.5 h; concentration at 4 h [2, 7]: 21 ± 13.1 ng/mL; free catechin concentration (share of total) ([2]; both, human, in vivo, 4 h): about 56%; concentration at 0.5 h [3, 15]: ~60 ng/mL; concentration at 4 h [3, 15]: ~100 ng/mL |
| COc1cc(/C=C/C(=O)O)ccc1O [Ferulic acid, ferulic acid] | ≈ 100% | – | ~75 | 99 ± 28.1 | 141 ± 73.9 | ~15 | – | 6.87 ± 3.83 | 14.78 ± 5.89 | 1.2 ± 1.1 | plasma concentrations ([1]; after ingestion of 250 mg ferulic acid from breakfast cereals): 150 to 210 nM; free ferulic acid (share) ([1]; after single ingestion of beer): around 25%; tmax ([1]; other report, ref 6): 0.77 h; tmax ([1]; other report, ref 27): 1 to 3 h; t½ [1]: 6.35 ± 2.95 h; concentration at 4 h ([2]; human, in vivo, read-out: Total plasma concentration): ~20 ng/mL; tmax (time of maximal plasma concentration) ([3]; human volunteers, single oral dose 300 mg Pycnogenol, total plasma, mean ± SD, listed as ferulic acid): 0.5 to 1 h and 1 h |
| O=C1c2c(O)cc(O)cc2O[C@H](c2ccc(O)c(O)c2)[C@H]1O (racemic) [Taxifolin, (±)-taxifolin] | – | – | – | 231 ± 86 | 399 ± 99 | 33.3 ± 12.5 | 8 | 8.89 ± 2.81 | – | 8.2 ± 2.5 | – |
